This passage reports IC50 and GI50 results from patent US20260365670A1, “EGFR INHIBITORS AND USES THEREOF” (DIZAL (JIANGSU) PHARMACEUTICAL CO., LTD., priority 2022, published 2026).

One experiment deals with T1, EGFR wild type (Homo sapiens, UniProt P00533).
T1 construct: purchased Carna Bio
Put plainly: Inhibition of EGFR wild type biochemical enzymatic activity (HTRF). The following applies: EGFR WT, 1 mM ATP, 1 h, room temperature, read-out: IC50 (nM) @WT. An outline of the steps: (§1)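 Compounds at varying concentrations were tested against each EGFR form using 1 mM ATP and 1 μM TK Substrate-biotin. Reactions ran 1 h at room temperature in Mg2+/Mn2+ buffer with CHAPS, DTT and 0.5% DMSO. Time-resolved fluorescence gave IC50 by four-parameter fit.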
In general terms: TR-FRET usually uses a lanthanide donor and a delayed reading to cut background.

The target in a further experiment is T2, EGFR L858R (Homo sapiens, UniProt P00533, L858R).
T2 construct: purchased Carna Bio
As to the kind of experiment: Inhibition of EGFR L858R biochemical enzymatic activity (HTRF). The following applies: 1 mM ATP, 1 h, room temperature, read-out: IC50 (nM) @L858R. An outline of the steps:
as §1

In the next experiment the target is T3, EGFR L858R/T790M (Homo sapiens, UniProt P00533, L858R/T790M).
T3 construct: purchased Carna Bio
Put plainly: Inhibition of EGFR L858R/T790M biochemical enzymatic activity (HTRF). Particulars: EGFR L858R-T790M, 1 mM ATP, 1 h, room temperature, read-out: IC50 (nM) @L858R-T790M. The gist of the method:
as §1

The target in a further experiment is T4, EGFR Exon19Del (Homo sapiens, UniProt P00533, DEL746-750).
T4 construct: purchased Carna Bio
Put plainly: Inhibition of EGFR Exon19Del biochemical enzymatic activity (HTRF). The following applies: EGFR Del19, 1 mM ATP, 1 h, room temperature, read-out: IC50 @Del19. The gist of the method: as §1

The next experiment concerns the target T5, EGFR Exon19Del/T790M (Homo sapiens, UniProt P00533, DEL746-750/T790M).
T5 construct: purchased Carna Bio
As to the kind of experiment: Inhibition of EGFR Exon19Del/T790M biochemical enzymatic activity (HTRF). The following applies: EGFR Del19-T790M, 1 mM ATP, 1 h, room temperature, read-out: IC50 (nM) @Del19-T790M. An outline of the steps: as §1

The next experiment has as its target T6, EGFR[T790M/C797S/L858R] (Homo sapiens, UniProt P00533, C797S/L858R/T790M).
T6 construct: purchased Carna Bio
As to the kind of experiment: Inhibition of EGFR[T790M/C797S/L858R] biochemical enzymatic activity (HTRF). Particulars: EGFR T790M-C797S-L858R, 1 mM ATP, 1 h, room temperature, read-out: IC50 (nM) @T790M- C797S - L858R. An outline of the steps: as §1

In experiment [1] the target is T7, EGFR[T790M/C797S/d746-750] (Homo sapiens, UniProt P00533, C797S/DEL746-750/T790M).
T7 construct: purchased Carna Bio
Put plainly: Inhibition of EGFR[T790M/C797S/d746-750] biochemical enzymatic activity (HTRF). Particulars: EGFR T790M-C797S-Del19, 1 mM ATP, 1 h, room temperature, read-out: IC50 (nM) @T790M - C797S - Del19. An outline of the steps: as §1

The target in the next experiment is T8, EGFR (d746-750 C797S) (Homo sapiens, UniProt P00533, C797S/DEL746-750).
T8 construct: purchased signalchem
Put plainly: Inhibition of EGFR (d746-750 C797S) biochemical enzymatic activity (HTRF). The following applies: EGFR Del19-C797S, 1 mM ATP, 1 h, room temperature, read-out: IC50 (nM) @Del19-C797S. An outline of the steps: as §1

For the next experiment, the target named is T9, EGFR (C797S L858R) (Homo sapiens, UniProt P00533, C797S/L858R).
T9 construct: purchased signalchem
As to the kind of experiment: Inhibition of EGFR (C797S L858R) biochemical enzymatic activity (HTRF). Particulars: EGFR L858-C797S, 1 mM ATP, 1 h, room temperature, read-out: IC50 (nM) @L858-C797S. An outline of the steps:
as §1

Experiment [2] has as its system Ba/F3 cells expressing EGFR mutations. As to the kind of experiment: Cell proliferation assay, Ba/F3 cells expressing EGFR mutations (CellTiter-Glo, 72 hours). The experiment is classed as cell-based. Particulars: CellTiter-Glo. An outline of the steps:
(§2)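 Growth over 72 h was quantified by CellTiter-Glo luminescence, normalised as (G3 − G0)/(DMSO G3 − G0), for PC-9 cells seeded at 500/well and EGFR-mutant Ba/F3 cells at 5000/well in RPMI1640. Compound concentration series added after overnight incubation; GI50 obtained from best-fit curves.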
In general terms: In ATP-based viability assays light output follows the ATP content of the culture.

The test system of the next experiment is PC-9. Put plainly: Cell proliferation assay, PC-9 cells (CellTiter-Glo, 72 hours). In kind it is cell-based. The following applies: PC9 cells, CellTiter-Glo, read-out: PC9 GI50. The gist of the method: as §2
The next experiment has as its system A-431. Put plainly: Cell proliferation GI50, A-431 cells (Table 6). The experiment is classed as cell-based.
The mark [3] stands for this setting: BaF3 cells, EGFR DEL19-C797S, read-out: DEL19-C797S/BaF3 GI50.
Setting [4] is: BaF3 cells, EGFR DEL19-T790-C797S, read-out: DEL19-T790-C797S/BaF3 GI50.
[5] abbreviates: BaF3 cells, EGFR L858R, read-out: L858R/BaF3 GI50.
Where [6] appears, read: BaF3 cells, EGFR L858R-C797S, read-out: L858R-C797S/BaF3 GI50.
[7] abbreviates: BaF3 cells, EGFR L858R-T790-C797S, read-out: L858R-T790-C797S/BaF3 GI50.
[8] abbreviates: BaF3 cells, EGFR L858R-T790M, read-out: L858R-T790M/BaF3 GI50.
Where [9] appears, read: EGFR DEL19-T790M, read-out: DEL19-T790M GI50.

Each structure is given as a SMILES string. Read-outs that look alike come from different tables or passages of the source.

T2 sequence (P00533 25-1210 L858R): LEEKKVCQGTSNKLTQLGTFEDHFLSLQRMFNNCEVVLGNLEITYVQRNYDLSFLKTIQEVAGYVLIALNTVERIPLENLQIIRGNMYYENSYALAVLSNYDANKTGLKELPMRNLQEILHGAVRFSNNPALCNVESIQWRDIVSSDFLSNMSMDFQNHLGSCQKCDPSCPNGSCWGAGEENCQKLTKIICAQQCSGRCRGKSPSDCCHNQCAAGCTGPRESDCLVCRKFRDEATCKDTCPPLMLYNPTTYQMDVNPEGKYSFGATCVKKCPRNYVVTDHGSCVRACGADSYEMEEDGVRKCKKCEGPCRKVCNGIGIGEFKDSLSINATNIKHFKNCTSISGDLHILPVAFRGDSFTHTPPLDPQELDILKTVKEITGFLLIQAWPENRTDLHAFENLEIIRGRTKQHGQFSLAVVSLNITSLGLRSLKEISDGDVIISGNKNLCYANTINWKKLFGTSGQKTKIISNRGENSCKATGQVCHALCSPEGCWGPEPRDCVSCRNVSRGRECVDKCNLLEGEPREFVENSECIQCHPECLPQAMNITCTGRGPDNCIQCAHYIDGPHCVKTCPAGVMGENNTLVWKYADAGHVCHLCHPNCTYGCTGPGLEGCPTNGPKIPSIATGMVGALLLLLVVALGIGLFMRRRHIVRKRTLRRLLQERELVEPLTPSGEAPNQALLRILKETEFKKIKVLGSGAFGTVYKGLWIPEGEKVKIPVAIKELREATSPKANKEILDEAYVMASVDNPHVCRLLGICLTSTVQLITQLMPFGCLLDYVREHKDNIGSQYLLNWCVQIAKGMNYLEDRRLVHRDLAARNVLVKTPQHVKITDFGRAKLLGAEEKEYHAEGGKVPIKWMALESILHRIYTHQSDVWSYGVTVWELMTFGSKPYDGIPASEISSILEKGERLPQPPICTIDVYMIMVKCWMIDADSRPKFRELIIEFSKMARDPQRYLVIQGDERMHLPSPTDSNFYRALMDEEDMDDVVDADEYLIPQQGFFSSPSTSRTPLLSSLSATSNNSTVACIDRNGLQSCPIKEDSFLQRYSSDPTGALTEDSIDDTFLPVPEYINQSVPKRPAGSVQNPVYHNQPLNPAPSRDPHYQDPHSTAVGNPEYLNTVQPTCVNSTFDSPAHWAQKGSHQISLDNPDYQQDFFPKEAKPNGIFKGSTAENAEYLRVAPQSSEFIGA
T6 sequence (P00533 25-1210 T790M/C797S/L858R): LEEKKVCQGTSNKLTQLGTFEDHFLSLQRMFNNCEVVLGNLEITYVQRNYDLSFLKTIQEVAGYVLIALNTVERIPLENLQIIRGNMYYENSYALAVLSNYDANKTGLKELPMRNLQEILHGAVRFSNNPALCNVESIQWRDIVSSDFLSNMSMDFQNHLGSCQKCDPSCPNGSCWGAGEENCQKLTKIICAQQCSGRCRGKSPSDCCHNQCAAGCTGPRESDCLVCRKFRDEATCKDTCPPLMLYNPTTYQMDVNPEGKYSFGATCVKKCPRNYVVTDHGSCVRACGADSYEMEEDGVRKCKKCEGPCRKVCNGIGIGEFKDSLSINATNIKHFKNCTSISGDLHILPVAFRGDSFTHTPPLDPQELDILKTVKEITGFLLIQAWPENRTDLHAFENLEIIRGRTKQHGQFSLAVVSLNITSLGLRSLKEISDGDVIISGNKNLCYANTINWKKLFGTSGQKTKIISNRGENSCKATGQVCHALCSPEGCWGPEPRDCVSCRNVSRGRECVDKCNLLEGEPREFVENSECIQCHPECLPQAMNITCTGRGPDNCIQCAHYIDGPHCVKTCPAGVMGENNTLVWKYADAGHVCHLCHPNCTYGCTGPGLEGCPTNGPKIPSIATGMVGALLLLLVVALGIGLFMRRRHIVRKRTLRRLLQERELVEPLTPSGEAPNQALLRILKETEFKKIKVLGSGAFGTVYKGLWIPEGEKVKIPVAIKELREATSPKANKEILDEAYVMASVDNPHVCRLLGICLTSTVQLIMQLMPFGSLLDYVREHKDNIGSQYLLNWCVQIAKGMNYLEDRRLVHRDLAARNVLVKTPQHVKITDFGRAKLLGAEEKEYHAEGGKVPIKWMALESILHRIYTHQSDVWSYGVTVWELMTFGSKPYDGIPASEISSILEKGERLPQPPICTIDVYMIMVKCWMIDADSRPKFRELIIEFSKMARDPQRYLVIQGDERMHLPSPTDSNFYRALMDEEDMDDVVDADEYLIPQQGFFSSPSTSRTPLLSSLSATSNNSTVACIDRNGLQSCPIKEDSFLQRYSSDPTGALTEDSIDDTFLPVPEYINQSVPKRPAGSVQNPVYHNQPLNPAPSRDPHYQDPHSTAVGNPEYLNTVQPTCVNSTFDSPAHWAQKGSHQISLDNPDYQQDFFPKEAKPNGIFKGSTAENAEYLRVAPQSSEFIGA
T4 sequence (P00533 with tags, fused parts or gaps DEL746-750 limits assumed): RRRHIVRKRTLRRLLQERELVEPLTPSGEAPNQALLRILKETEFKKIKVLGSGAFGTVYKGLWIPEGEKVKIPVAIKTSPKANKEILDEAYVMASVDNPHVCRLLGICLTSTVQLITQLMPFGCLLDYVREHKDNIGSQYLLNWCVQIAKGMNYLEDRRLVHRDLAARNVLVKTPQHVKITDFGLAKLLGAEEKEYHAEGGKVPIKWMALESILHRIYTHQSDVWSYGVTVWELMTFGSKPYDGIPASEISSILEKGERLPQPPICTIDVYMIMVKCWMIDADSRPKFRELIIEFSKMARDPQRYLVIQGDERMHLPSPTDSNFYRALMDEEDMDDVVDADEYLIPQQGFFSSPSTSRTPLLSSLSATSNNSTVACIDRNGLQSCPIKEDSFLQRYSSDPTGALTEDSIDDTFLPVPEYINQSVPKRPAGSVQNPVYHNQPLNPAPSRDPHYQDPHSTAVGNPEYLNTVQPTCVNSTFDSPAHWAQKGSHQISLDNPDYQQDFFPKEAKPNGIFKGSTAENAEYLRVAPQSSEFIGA
T5 sequence (P00533 with tags, fused parts or gaps DEL746-750/T790M limits assumed): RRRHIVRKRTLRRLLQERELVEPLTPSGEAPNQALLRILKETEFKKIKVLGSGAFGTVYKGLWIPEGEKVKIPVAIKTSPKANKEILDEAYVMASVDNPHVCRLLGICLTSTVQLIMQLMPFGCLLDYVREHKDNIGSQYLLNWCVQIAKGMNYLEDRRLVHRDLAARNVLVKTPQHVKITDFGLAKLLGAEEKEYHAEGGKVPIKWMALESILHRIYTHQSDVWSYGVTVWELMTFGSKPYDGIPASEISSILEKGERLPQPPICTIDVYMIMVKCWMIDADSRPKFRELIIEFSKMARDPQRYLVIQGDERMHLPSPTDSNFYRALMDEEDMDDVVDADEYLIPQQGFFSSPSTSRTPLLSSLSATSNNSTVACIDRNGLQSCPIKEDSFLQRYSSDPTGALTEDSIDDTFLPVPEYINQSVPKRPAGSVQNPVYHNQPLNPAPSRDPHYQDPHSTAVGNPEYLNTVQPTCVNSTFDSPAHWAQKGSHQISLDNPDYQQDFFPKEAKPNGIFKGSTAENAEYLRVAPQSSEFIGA
T8 sequence (P00533 with tags, fused parts or gaps DEL746-750/C797S limits assumed): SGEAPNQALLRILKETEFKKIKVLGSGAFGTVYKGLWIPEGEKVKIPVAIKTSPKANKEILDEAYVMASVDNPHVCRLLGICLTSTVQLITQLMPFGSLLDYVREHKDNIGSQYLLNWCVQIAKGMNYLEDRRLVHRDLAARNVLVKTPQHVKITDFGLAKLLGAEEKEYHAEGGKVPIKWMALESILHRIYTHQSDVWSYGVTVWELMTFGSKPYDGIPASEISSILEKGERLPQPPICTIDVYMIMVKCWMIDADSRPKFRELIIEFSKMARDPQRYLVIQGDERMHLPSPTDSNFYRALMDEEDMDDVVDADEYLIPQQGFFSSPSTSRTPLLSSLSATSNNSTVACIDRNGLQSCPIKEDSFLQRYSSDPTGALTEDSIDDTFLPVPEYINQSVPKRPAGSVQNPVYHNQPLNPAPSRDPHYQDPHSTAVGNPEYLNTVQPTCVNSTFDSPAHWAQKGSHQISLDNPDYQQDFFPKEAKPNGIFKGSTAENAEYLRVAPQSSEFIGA
T7 sequence (P00533 with tags, fused parts or gaps DEL746-750/T790M/C797S limits assumed): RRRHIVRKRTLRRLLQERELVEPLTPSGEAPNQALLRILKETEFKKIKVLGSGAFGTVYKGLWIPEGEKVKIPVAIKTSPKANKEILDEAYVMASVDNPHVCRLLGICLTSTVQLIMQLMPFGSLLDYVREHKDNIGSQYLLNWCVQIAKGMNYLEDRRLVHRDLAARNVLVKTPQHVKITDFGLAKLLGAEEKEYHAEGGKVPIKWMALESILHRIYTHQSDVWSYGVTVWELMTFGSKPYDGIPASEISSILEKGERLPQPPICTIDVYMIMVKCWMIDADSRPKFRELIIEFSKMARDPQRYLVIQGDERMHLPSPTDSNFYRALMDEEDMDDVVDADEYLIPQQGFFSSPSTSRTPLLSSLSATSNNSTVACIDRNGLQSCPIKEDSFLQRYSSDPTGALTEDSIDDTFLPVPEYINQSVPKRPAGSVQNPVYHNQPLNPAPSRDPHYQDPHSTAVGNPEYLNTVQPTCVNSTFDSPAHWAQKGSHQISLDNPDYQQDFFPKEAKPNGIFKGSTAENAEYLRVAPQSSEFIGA

What is called IC50 is the concentration that inhibits the measured activity by half. On to `CCN1CCN(c2ccc3nc4n(c3c2)C23CCC(CN(CCOc5c(cnn5C)-c5cc(cn(C)c5=O)C(=O)N4)C2)C3)CC1` (single isomer, unassigned) [Example A107A], for which the IC50 on EGFR wild type is more than 5000 nM; on EGFR L858R it was 770 nM; on EGFR L858R/T790M, more than 5000 nM; on EGFR Exon19Del it was 267 nM; at EGFR Exon19Del/T790M it was 4500 nM; at EGFR[T790M/C797S/L858R], more than 5000 nM. Besides, the IC50 in [1] stood at 2860 nM; on EGFR (d746-750 C797S), 245 nM; on EGFR (C797S L858R), 1040 nM. Also, the GI50 in experiment [2] (setting [3]) turned out to be 66 nM; in experiment [2] (setting [4]) it was 160 nM; in experiment [2] (setting [5]), 240 nM; in experiment [2] (setting [6]), 105 nM; in experiment [2] (setting [7]), 235 nM; in [2] (setting [8]) it was 332 nM. Besides, the GI50 in [2] (setting [9]) came out at 183 nM; in the experiment with PC-9, 238 nM; in the experiment with A-431 (A-431 cells), 2420 nM.
On to `CCN1CCOc2c(cnn2C)-c2cc(cn(C)c2=O)C(=O)Nc2nc3ccccc3n2C(C)C1` (stereo not drawn) [Example A6, 10-Ethyl-5,12,26-trimethyl-7-oxa-4,5,10,13,20,22,26-heptaazapentacyclo[22.3.1.0^{2,6}.0^{13,21}.0^{14,19}]octacosa-1(28),2(6),3,14,16,18,20,24-octaene-23,27-dione], for which the concentration for half-maximal inhibition (IC50) on EGFR wild type is more than 5000 nM; on EGFR L858R, more than 5000 nM; at EGFR L858R/T790M it was more than 5000 nM; on EGFR Exon19Del, 1670 nM; at EGFR Exon19Del/T790M it was 1530 nM; at EGFR[T790M/C797S/L858R], more than 5000 nM. Further, the half-maximal inhibitory concentration (IC50) in [1] is 1230 nM; at EGFR (d746-750 C797S), 1870 nM; at EGFR (C797S L858R), more than 5000 nM. Further, the GI50 in experiment [2] (Mus musculus, BaF3, 72 h, BaF3 cells, EGFR DEL19-C797S, read-out: DEL19-C797S/BaF3 GI50) came to 204 nM; in experiment [2] (Mus musculus, BaF3, 72 h, BaF3 cells, EGFR DEL19-T790-C797S, read-out: DEL19-T790-C797S/BaF3 GI50), 1050 nM; in experiment [2] (Mus musculus, BaF3, 72 h, BaF3 cells, EGFR L858R, read-out: L858R/BaF3 GI50) it was 1310 nM; in [2] (Mus musculus, BaF3, 72 h, BaF3 cells, EGFR L858R-C797S, read-out: L858R-C797S/BaF3 GI50), 919 nM; in experiment [2] (Mus musculus, BaF3, 72 h, BaF3 cells, EGFR L858R-T790-C797S, read-out: L858R-T790-C797S/BaF3 GI50), 1540 nM; in experiment [2] (Mus musculus, BaF3, 72 h, BaF3 cells, EGFR L858R-T790M, read-out: L858R-T790M/BaF3 GI50) it was 795 nM. For the same molecule, the GI50 in [2] (Mus musculus, BaF3, 72 h, EGFR DEL19-T790M, read-out: DEL19-T790M GI50) is 968 nM; in the experiment on PC-9 (Homo sapiens, PC-9, 72 h), 403 nM; in the experiment with A-431 (Homo sapiens, A-431, A-431 cells), 1780 nM.
On to `CN1CCC12CCN(c1ccc3nc4n(c3c1)C13CCC(CN(CCOc5c(cnn5C)-c5cc(cn(C)c5=O)C(=O)N4)C1)C3)CC2` (single isomer, unassigned) [Example A67B], for which the IC50 on EGFR wild type was 2.1 nM; on EGFR L858R it was 1.1 nM; at EGFR L858R/T790M, 1.1 nM; on EGFR Exon19Del, 0.65 nM; on EGFR Exon19Del/T790M, 1.3 nM; at EGFR[T790M/C797S/L858R] it was 1.1 nM. Also, the IC50 in experiment [1] worked out at 1.2 nM; at EGFR (d746-750 C797S), 0.48 nM; at EGFR (C797S L858R), 1.2 nM. The GI50 in experiment [2] (setting [3]) came out at 0.64 nM; in experiment [2] (setting [4]), 0.92 nM; in experiment [2] (setting [5]), 0.79 nM; in [2] (setting [6]) it was 1.9 nM; in [2] (setting [7]) it was 0.84 nM; in experiment [2] (setting [8]), 3.5 nM. Moreover, the GI50 stood at 1 nM in [2] (setting [9]), 2.5 nM with PC-9 and 712 nM with A-431 (A-431 cells).
